Test results as given in PubChem BioAssay (NCI).
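Cells were grown in 96-well plates and exposed to each compound for 48 hours at five concentrations; endpoints were interpolated linearly between bracketing concentrations, or set to the highest concentration if not reached. GI50: concentration for 50% inhibition of growth. At the TGI there is no net growth.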

Columns and labels:
Assay in all cases: NCI anticancer screen, dose series, 48 h
[1] = system: CCRF-CEM leukemia
[2] = system: IGROV1 ovarian
[3] = system: SW-620 colon
[4] = system: RXF 393 renal
[5] = system: SF-268 CNS
[6] = system: NCI-H23 lung
[7] = system: HCT-116 colon
[8] = system: SK-OV-3 ovarian
[9] = system: DU-145 prostate
[10] = system: PC-3 prostate

SMILES: COCCNC(=O)C1C(=O)C(=O)N(CCOC)C1=O (configuration not stated)
- TGI [1]: > 100 µM
- TGI [2]: > 100 µM
- TGI [3]: > 100 µM
- TGI [4]: > 100 µM
- TGI [5]: > 100 µM
- TGI [6]: > 100 µM
- TGI [7]: > 100 µM
- TGI [8]: > 100 µM

SMILES: Cc1ccc(C)c(N2C(=O)C(=O)C(c3nc4ccccc4s3)/C(=N/NC(=O)NN)C2=O)c1 (configuration not stated)
- TGI [1]: > 100 µM
- TGI [2]: > 100 µM
- TGI [3]: > 100 µM
- TGI [4]: > 100 µM
- TGI [5]: > 100 µM
- TGI [6]: > 100 µM
- TGI [7]: > 100 µM
- TGI [8]: > 100 µM

SMILES: Cc1ccc(/C(C#N)=C/c2cccc([N+](=O)[O-])c2)cc1
- TGI [9]: > 100 µM
- TGI [2]: > 100 µM
- TGI [3]: > 100 µM
- TGI [4]: 41 µM
- TGI [10]: > 100 µM
- TGI [5]: > 100 µM
- TGI [6]: > 100 µM
- TGI [7]: > 100 µM
- TGI [8]: > 100 µM

SMILES: C=CCN1CC(=O)N2[C@@H](Cc3ccc(O)cc3F)C(=O)N(Cc3cccc(N4CC(N5CCN(CC)CC5)C4)n3)C[C@@H]2N1C(=O)NCc1ccccc1
- GI50 [1]: 0.0398 µM
- TGI [1]: > 100 µM
- GI50 [9]: 0.0844 µM
- TGI [9]: > 100 µM
- GI50 [3]: 0.107 µM
- TGI [3]: > 100 µM
- GI50 [4]: 0.231 µM
- TGI [4]: 6.85 µM
- GI50 [10]: 0.0359 µM
- TGI [10]: > 100 µM
- GI50 [5]: 0.0348 µM
- TGI [5]: > 100 µM
- GI50 [6]: 0.0756 µM
- TGI [6]: > 100 µM
- GI50 [7]: 0.0325 µM
- TGI [7]: > 100 µM
- GI50 [8]: 0.0345 µM
- TGI [8]: 0.244 µM

SMILES: COC(=O)c1cc2c(cc1Cl)SC1=NN(C)C(N(C)C)N1S2(=O)=O (configuration not stated)
- GI50 [1]: > 100 µM
- TGI [1]: > 100 µM
- GI50 [9]: > 100 µM
- TGI [9]: > 100 µM
- GI50 [2]: > 100 µM
- TGI [2]: > 100 µM
- GI50 [3]: > 100 µM
- TGI [3]: > 100 µM
- GI50 [10]: > 100 µM
- TGI [10]: > 100 µM
- GI50 [5]: > 100 µM
- TGI [5]: > 100 µM
- GI50 [6]: > 100 µM
- TGI [6]: > 100 µM
- GI50 [7]: > 100 µM
- TGI [7]: > 100 µM
- GI50 [8]: > 100 µM
- TGI [8]: > 100 µM

SMILES: N#CC1=C(/N=C/c2ccccc2)Oc2c(ccc3ccccc23)C1c1ccccc1 (configuration not stated)
- GI50 [1]: 0.462 µM
- TGI [1]: > 100 µM
- GI50 [9]: 0.735 µM
- TGI [9]: > 64.3 µM
- GI50 [2]: 0.725 µM
- TGI [2]: > 100 µM
- GI50 [3]: 0.405 µM
- TGI [3]: > 100 µM
- GI50 [10]: 0.477 µM
- TGI [10]: > 100 µM
- GI50 [5]: 1.02 µM
- TGI [5]: > 100 µM
- GI50 [6]: 0.715 µM
- TGI [6]: > 100 µM
- GI50 [7]: 0.427 µM
- TGI [7]: > 47.8 µM
- GI50 [8]: 0.534 µM
- TGI [8]: > 100 µM

SMILES: C[CH2][Sn]([CH2]C)([O]C(=O)c1ccccc1OC)[O][Sn]([CH2]C)([CH2]C)[O]C(=O)c1ccccc1OC
- GI50 [1]: 41.2 µM
- TGI [1]: > 100 µM
- GI50 [2]: > 100 µM
- TGI [2]: > 100 µM
- GI50 [3]: 44.8 µM
- TGI [3]: > 100 µM
- GI50 [4]: 43.3 µM
- TGI [4]: > 100 µM
- GI50 [5]: > 100 µM
- TGI [5]: > 100 µM
- GI50 [6]: > 100 µM
- TGI [6]: > 100 µM
- GI50 [7]: > 100 µM
- TGI [7]: > 100 µM
- GI50 [8]: > 100 µM
- TGI [8]: > 100 µM

SMILES: COC(=O)[C@@]1(C(C)CC(=O)O)CCCCC1=O (some centres not stated)
- TGI [1]: > 100 µM
- TGI [2]: > 100 µM
- TGI [4]: > 100 µM
- TGI [5]: > 100 µM
- TGI [6]: > 100 µM
- TGI [7]: > 100 µM
- TGI [8]: > 100 µM

SMILES: C=C1CCC2[C@@H](CCC3[C@]2(C)CCC[C@]3(C)C(=O)OC)C1CC=O (some centres not stated)
- TGI [1]: 35.2 µM
- TGI [2]: 38.6 µM
- TGI [3]: 35 µM
- TGI [5]: 35.1 µM
- TGI [6]: 35.4 µM
- TGI [7]: 29.4 µM
- GI50 [8]: 21.4 µM
- TGI [8]: 37.7 µM

SMILES: CCCCCO/N=C\c1c2c(O)c3c(O)c(C)c4c(c3c1O)C(=O)C(C)(O/C=C\C(OC)C(C)C(OC(C)=O)C(C)C(O)C(C)C(O)C(C)/C=C\C=C(\C)C(=O)N2)O4 (configuration not stated)
- GI50 [1]: 2.92 µM
- TGI [1]: 10.2 µM
- GI50 [9]: 1.93 µM
- TGI [9]: 4.29 µM
- GI50 [3]: 1.68 µM
- TGI [3]: 3.04 µM
- GI50 [4]: 1.71 µM
- TGI [4]: 3.1 µM
- GI50 [10]: 1.65 µM
- TGI [10]: 4.5 µM
- GI50 [5]: 1.66 µM
- TGI [5]: 3.23 µM
- GI50 [6]: 1.74 µM
- TGI [6]: 3.44 µM
- GI50 [7]: 1.65 µM
- TGI [7]: 3.01 µM
- GI50 [8]: 2.29 µM
- TGI [8]: 6.84 µM

SMILES: NC(=O)C(=O)C1CCC2=C(Sc3ccccc3N2)C1=O (configuration not stated)
- TGI [2]: > 100 µM
- TGI [3]: > 100 µM
- TGI [4]: > 100 µM
- TGI [5]: > 100 µM
- TGI [6]: > 100 µM
- TGI [7]: > 100 µM
- TGI [8]: > 100 µM

SMILES: Nc1c([N+](=O)[O-])nc(Cl)c2nncn12
- TGI [1]: > 68.2 µM
- TGI [2]: > 100 µM
- TGI [3]: > 100 µM
- TGI [4]: > 100 µM
- TGI [5]: > 100 µM
- TGI [6]: > 100 µM
- TGI [7]: > 63.9 µM
- TGI [8]: > 100 µM

SMILES: N#CC(C#N)c1ccc(C(=O)N2CCC[C@H]2CO)cc1
- TGI [1]: > 100 µM
- TGI [2]: > 100 µM
- TGI [3]: > 100 µM
- TGI [4]: > 100 µM
- TGI [5]: > 100 µM
- TGI [6]: > 100 µM
- TGI [8]: > 100 µM

SMILES: COc1ccc(-c2cc(C(=O)Nc3ccc(C)c(C)c3)nc(NC#N)n2)cc1
- TGI [1]: > 100 µM
- TGI [2]: > 100 µM
- TGI [3]: > 100 µM
- TGI [4]: > 100 µM
- TGI [5]: > 100 µM
- TGI [6]: > 100 µM
- TGI [7]: > 100 µM
- TGI [8]: > 100 µM

SMILES: Cc1ccccc1NC(=O)C(=O)C(C#N)c1ccccc1C (configuration not stated)
- TGI [1]: 89.8 µM
- TGI [2]: > 100 µM
- TGI [3]: 36.5 µM
- TGI [4]: > 100 µM
- TGI [5]: > 100 µM
- TGI [6]: > 100 µM
- TGI [7]: > 100 µM
- TGI [8]: > 100 µM

SMILES: COCOCC/C=C/C=O
- TGI [1]: > 100 µM
- TGI [2]: > 100 µM
- TGI [3]: > 100 µM
- TGI [4]: > 100 µM
- TGI [5]: > 100 µM
- TGI [6]: > 100 µM
- TGI [7]: > 100 µM
- TGI [8]: > 100 µM

SMILES: Cc1ccc(S(=O)(=O)N/N=C(/CC(=O)c2c(C)n([O-])c3ccccc3[n+]2=O)C(=O)Nc2ccccc2C)cc1
- TGI [2]: > 100 µM
- TGI [3]: > 100 µM
- TGI [4]: > 100 µM
- TGI [5]: > 100 µM
- TGI [6]: > 100 µM
- TGI [7]: > 100 µM
- TGI [8]: > 100 µM

SMILES: CC1(C)CC(=O)C(/C(=N/NC(=S)NN)C(=O)Nc2nc3ccc([N+](=O)[O-])cc3s2)C(=O)C1
- TGI [1]: > 100 µM
- TGI [2]: > 100 µM
- TGI [3]: > 100 µM
- TGI [4]: > 100 µM
- TGI [5]: > 100 µM
- TGI [6]: > 100 µM
- TGI [7]: > 100 µM
- TGI [8]: > 100 µM

SMILES: NC(=O)NNC(=O)NC12CC3CC(CC(C3)C1)C2
- TGI [1]: > 100 µM
- TGI [2]: > 100 µM
- TGI [3]: > 100 µM
- TGI [4]: > 100 µM
- TGI [5]: > 100 µM
- TGI [6]: > 100 µM
- TGI [7]: > 100 µM
- TGI [8]: > 100 µM
